{"source": "patent US5034553A", "about": "“Platinum-(II)-diamine complex, method for the preparation of this compound, preparation with an anti-tumour action which contains this compound and also shaped preparations with an anti-tumour action” (Nederlandse Organisatie Voor …, priority 1988, dated 1991)", "key": {"L1210 murine leukaemia": {"test_system": "L1210 murine leukaemia", "experiment": "Activity against L1210 murine leukaemia", "assay_type": "in vivo, CDF1 mice", "details": "for % T/C: once on day 1", "experimental": "The platinum complex is investigated for anti-tumour action against L1210 murine leukaemia. CDF1 mice with a weight of 20 g were inoculated intraperitoneally with 10^6 ascitic cells of L1210 leukaemia. The administration of the active substance was started the day following the intraperitoneal implantation of the tumour. The complex is administered in diverse amounts by intraperitoneal injections. Groups of 6 mice are used for each dose and they are treated with a single dose of the complex on the treatment day. A group of ten control mice treated with a physiological saline solution was included in the experiment. The groups treated with cis-platinum are included as positive comparisons. The mice were weighed before the treatment and again on the fifth or sixth day and the average change in weight is taken as a measure of the toxicity. The animals are assessed daily for mortality and the experiments are ended after 30 days. The tumour activity is determined on the basis of % T/C, which is the ratio of mean survival time of the group treated with the active substance relative to the mean survival time of the comparison group treated with a physiological saline solution times 100. The mice treated with physiological saline solution usually have a mean survival time of 7 days. A compound is regarded as active when this gives a % T/C≥125%."}, "[1]": {"test_system": "M5076 reticulum cell sarcoma", "experiment": "Action against M5076 sarcoma, intraperitoneal implantation, i.p. treatment", "assay_type": "in vivo, BDF1 mice", "experimental": "(§1) The complex was also assessed for anti-tumour action against M5076 sarcoma. BDF1 mice, 8 per group, were inoculated intraperitoneally with 10^6 cells of M5076 or subcutaneously with a fragment of a M5076 tumour.\n(§2) Mice with an intraperitoneal tumour were treated intraperitoneally starting 13 days after the implantation and this was continued on days 17, 21 and 25, resulting in 4 treatments in all. Mice with an implanted subcutaneous tumour were treated intravenously starting 5 days after the implantation and again on days 9, 13 and 17. Therefore a total of four treatments. Four doses of the complex were tested. A comparison group treated with physiological saline solution and groups treated with cs-platinum are included in this experiment. The mice were assessed daily for survival and the tests were ended after 75 to 80 days. The anti-tumour action was determined on the basis of a) mean survival time of the mice treated with the active substance relative to that of the untreated mice (% T/C) and b) the mean time for subcutaneously implanted tumours to reach a weight of 1 gram in mice treated with active substance relative to the untreated mice (T-C). A compound is regarded as active if this gives a T/C≥125% or is T-C≥13 days."}, "[2]": {"test_system": "M5076 reticulum cell sarcoma", "experiment": "Action against M5076 sarcoma, subcutaneous implantation, i.v. treatment", "assay_type": "in vivo, BDF1 mice", "details": "for T-C: time to 1 gram tumour", "experimental": "as §1, §2"}, "A2780/124": {"test_system": "A2780/124", "details": "for IC50 ratio: IC50 A2780/124 versus IC50 A2780", "procedure": "(§3) The cytotoxic action of the platinum complex was evaluated in vitro in a cell line panel consisting of B16-F10 murine melanoma, HCT-116 human colon carcinoma, A2780 human ovary carcinoma and 2 sub-lines of A2780 which are resistant to cis-platinum, i.e. A2780/124 and A2780/PPD respectively. The B16-F10 cell line was kept in a culture of Eagle's Minimum Essential Medium (MEM) with Earle's salts (Gibco) enriched with 2 mmol L-glutamine, 2.06 mmol sodium pyruvate, insulin (0.26 units/ml), penicillin/streptomycin (10 units/ml and 10 mcg/ml respectively), MEM non-essential amino acids (0.6% by weight Gibco) and 10% foetal bovine serum (Hyclone). The HCT-116 cells were cultured in McCoy's 5A medium (modified Gibco) which was supplemented with 2 mmol L-glutamine, 0.12 mmol L-serine, 0.17 mmol asparagine, 1.5 mmol sodium pyruvate, MEM essential amino acids (0.625%, Gibco), MEM non-essential amino acids (0.67%, Gibco), MEM vitamins (0.6%, Gibco), foetal calf serum (10%, Hyclone) and penicillin/streptomycin (10 units/ml and 10 mcg/ml). The A2780 cell lines are cultured in RPMI medium 1640 (Gibco Laboratories) supplemented with foetal calf serum (10% Hyclone), 2 mmol L-glutamine and penicillin/streptomycin. All cell lines are incubated at 37° C. in an incubator with 5% by volume CO2 with a high atmospheric humidity.\n(§4) Logarithmically growing cells are harvested by mild trypsinisation and 4,000 cells are added to a microtitre plate with 96 wells (Costar). The plates are incubated for one night in 5% by volume CO2 at 37° C. to allow the cells to adhere to the plate. The cells are then treated with the platinum complex or cis-platinum and incubated for 72 hours. […] Formalin (10% by weight) in a phosphate-buffered physiological saline solution is added and the cells are fixed for 10 minutes. […] The spot is rendered soluble with 0.2 ml 0.1M acetic acid/ethanol (1:1) and the optical densities are determined with the aid of a Dynatech MR 600 microtitre plate reader. […]"}, "A2780/DDP": {"test_system": "A2780/DDP", "details": "for IC50 ratio: IC50 A2780/DDP versus IC50 A2780", "procedure": "as §3, §4"}, "[3]": {"details": "B. Rosenberg et al., Nature 222 (1969); cited from earlier work"}, "B16-F10 murine melanoma": {"test_system": "B16-F10 murine melanoma", "experiment": "In vitro cytotoxicity, B16-F10", "assay_type": "cell-based", "details": "B16-F10, 72 hours", "procedure": "(§5) The cytotoxic action of the platinum complex was evaluated in vitro in a cell line panel consisting of B16-F10 murine melanoma, HCT-116 human colon carcinoma, A2780 human ovary carcinoma and 2 sub-lines of A2780 which are resistant to cis-platinum, i.e. A2780/124 and A2780/PPD respectively. The B16-F10 cell line was kept in a culture of Eagle's Minimum Essential Medium (MEM) with Earle's salts (Gibco) enriched with 2 mmol L-glutamine, 2.06 mmol sodium pyruvate, insulin (0.26 units/ml), penicillin/streptomycin (10 units/ml and 10 mcg/ml respectively), MEM non-essential amino acids (0.6% by weight Gibco) and 10% foetal bovine serum (Hyclone). The HCT-116 cells were cultured in McCoy's 5A medium (modified Gibco) which was supplemented with 2 mmol L-glutamine, 0.12 mmol L-serine, 0.17 mmol asparagine, 1.5 mmol sodium pyruvate, MEM essential amino acids (0.625%, Gibco), MEM non-essential amino acids (0.67%, Gibco), MEM vitamins (0.6%, Gibco), foetal calf serum (10%, Hyclone) and penicillin/streptomycin (10 units/ml and 10 mcg/ml). […]\n(§6) Logarithmically growing cells are harvested by mild trypsinisation and 4,000 cells are added to a microtitre plate with 96 wells (Costar). […] The spot is rendered soluble with 0.2 ml 0.1M acetic acid/ethanol (1:1) and the optical densities are determined with the aid of a Dynatech MR 600 microtitre plate reader. […]"}, "[4]": {"test_system": "HCT-116 human colon carcinoma", "experiment": "In vitro cytotoxicity, HCT-116", "assay_type": "cell-based", "details": "HCT116, 72 hours", "procedure": "as §5, §6"}, "[5]": {"test_system": "A2780 human ovary carcinoma", "experiment": "In vitro cytotoxicity, A2780", "assay_type": "cell-based", "details": "A2780, 72 hours", "procedure": "as §5, §6"}, "[6]": {"test_system": "B16-F10, HCT-116, A2780, A2780/124 and A2780/DDP", "assay_type": "cell-based, murine and human", "procedure": "as §5, §6"}, "[7]": {"details": "2.4 mg/kg i.v. on days 5, 9, 13 and 17"}, "[8]": {"details": "4.8 mg/kg i.v. on days 5, 9, 13 and 17"}, "[9]": {"details": "4 mg/kg i.v. on days 5, 9, 13 and 17"}, "[10]": {"details": "6 mg/kg i.v. on days 5, 9, 13 and 17"}, "[11]": {"details": "8 mg/kg i.v. on days 5, 9, 13 and 17"}, "[12]": {"details": "12 mg/kg i.v. on days 5, 9, 13 and 17"}}}
{"smiles": "N.N.[Cl][Pt][Cl]", "note": "[Cis-platinum, cis-diamine-dichloroplatinum, reference compound]", "values": [{"measurement": "maximum % T/C", "setting": "L1210 murine leukaemia; 6-10 mg/kg", "result": 138, "unit": "%"}, {"measurement": "% T/C", "setting": "[1]; 2.4 mg/kg i.p. on days 13, 17, 21 and 25", "result": 164, "unit": "%"}, {"measurement": "% T/C", "setting": "[1]; 4.8 mg/kg i.p. on days 13, 17, 21 and 25", "result": 166, "unit": "%"}, {"measurement": "% T/C", "setting": "[2]; [7]", "result": 144, "unit": "%"}, {"measurement": "T-C", "setting": "[2]; [7]", "result": 23.3, "unit": "days"}, {"measurement": "% T/C", "setting": "[2]; [8]", "result": 141, "unit": "%"}, {"measurement": "T-C", "setting": "[2]; [8]", "result": 31.8, "unit": "days"}, {"measurement": "IC50 ratio", "setting": "A2780/124", "result": 10}, {"measurement": "IC50 ratio", "setting": "A2780/DDP", "result": 12.6}, {"measurement": "anti-tumour activity", "setting": "[3]", "result": "very strong anti-tumour activity"}]}
{"smiles": "CC(C)C(CN)(CN)C(C)C.O=C([O-])C(=O)[O-].[Pt+2]", "note": "[TNO-56, 2,2-Diisopropyl-1,3-diaminopropaneoxalatoplatinum (II)]", "values": [{"measurement": "IC50", "setting": "B16-F10 murine melanoma", "result": 43, "unit": "µg/mL"}, {"measurement": "IC50", "setting": "[4]", "result": 115, "unit": "µg/mL"}, {"measurement": "IC50", "setting": "[5]", "result": 221, "unit": "µg/mL"}, {"measurement": "% T/C", "setting": "L1210 murine leukaemia; 10 mg/kg i.p.", "result": 125, "unit": "%"}, {"measurement": "% T/C", "setting": "L1210 murine leukaemia; 20 mg/kg i.p.", "result": 144, "unit": "%"}, {"measurement": "% T/C", "setting": "L1210 murine leukaemia; 40 mg/kg i.p.", "result": 88, "unit": "%"}, {"measurement": "activity", "setting": "L1210 murine leukaemia; 10 and 20 mg/kg i.p., active if % T/C≥125%", "result": "active"}, {"measurement": "% T/C", "setting": "[1]; 4 mg/kg i.p. on days 13, 17, 21 and 25", "result": 139, "unit": "%"}, {"measurement": "% T/C", "setting": "[1]; 6 mg/kg i.p. on days 13, 17, 21 and 25", "result": 154, "unit": "%"}, {"measurement": "% T/C", "setting": "[1]; 8 mg/kg i.p. on days 13, 17, 21 and 25", "result": 161, "unit": "%"}, {"measurement": "% T/C", "setting": "[1]; 12 mg/kg i.p. on days 13, 17, 21 and 25", "result": 193, "unit": "%"}, {"measurement": "activity", "setting": "[1]; all doses tested, i.p.", "result": "active"}, {"measurement": "% T/C", "setting": "[2]; [9]", "result": 119, "unit": "%"}, {"measurement": "T-C", "setting": "[2]; [9]", "result": 7.8, "unit": "days"}, {"measurement": "% T/C", "setting": "[2]; [10]", "result": 135, "unit": "%"}, {"measurement": "T-C", "setting": "[2]; [10]", "result": 14.0, "unit": "days"}, {"measurement": "% T/C", "setting": "[2]; [11]", "result": 140, "unit": "%"}, {"measurement": "T-C", "setting": "[2]; [11]", "result": 21.5, "unit": "days"}, {"measurement": "% T/C", "setting": "[2]; [12]", "result": 144, "unit": "%"}, {"measurement": "T-C", "setting": "[2]; [12]", "result": 26.8, "unit": "days"}, {"measurement": "% T/C and tumour inhibition", "setting": "[2]; dose dependence, i.v.", "result": "dosage-dependent increase in % T/C and tumour inhibition"}, {"measurement": "cytotoxic action", "setting": "[6]", "result": "cytotoxic for all five cell lines"}, {"measurement": "IC50", "setting": "A2780/124; A2780/124, 72 hours", "result": 155, "unit": "µg/mL"}, {"measurement": "IC50 ratio", "setting": "A2780/124", "result": 0.7}, {"measurement": "IC50", "setting": "A2780/DDP; A2780/DDP, 72 hours", "result": 110, "unit": "µg/mL"}, {"measurement": "IC50 ratio", "setting": "A2780/DDP", "result": 0.5}]}
